We go through eleven compounds from US11724992B2 (Novartis AG, priority 2017, dated 2023).

pIC50: −log10 of the molar value.

One may read the pIC50 as −log10 of the IC50, conventionally taken in molar units.

The experiment has as its system IL-1β production in PMA-differentiated THP-1 cells. The experiment can be described thus: IL-1β production in PMA-differentiated THP-1 cells stimulated with gramicidin (hTHP-1 assay, 2% fetal bovine serum; Procedures 1-3). It is filed as cell-based, human. The note with it: hTHP-1 assay containing 2% fetal bovine serum; class symbols; read-out: hTHP-1 IC50 (Average IC50 of compounds in hTHP-1 assay). In a few lines: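 Readout is HTRF of IL-1β in cell-free supernatant after 2 h gramicidin (5 μM) challenge. Cells: THP-1 differentiated with PMA 20 ng/ml for 16-18 h, plated 50,000/well in 2% FBS RPMI, exposed to compound 1 h beforehand at final 100–0.0017 μM, DMSO 0.37%.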
Regarding `CN(C)C(C)(C)c1ccc(S(N)(=O)=NC(=O)Nc2c3c(cc4c2CCC4)CCC3)cc1` (single isomer, unassigned) [Example 362, (S) or (R)-4-(2-(dimethylamino)propan-2-yl)-N′-((1,2,3,5,6,7-hexahydro-s-indacen-4-yl)carbamoyl)benzenesulfonimidamide], the negative-log IC50 (pIC50) was 5.30 to 6.00.
With `CC(C)(O)c1ncc(S(N)(=O)=NC(=O)Nc2c3c(cc4c2C(=O)CC4)CCC3)s1` (single isomer, unassigned) [Example 363, (S) or (R)-2-(2-Hydroxypropan-2-yl)-N′-((3-oxo-1,2,3,5,6,7-hexahydro-s-indacen-4-yl)carbamoyl)thiazole-5-sulfonimidamide] the figure was 5.30 to 6.00; with `CC(C)(O)c1ncc(S(N)(=O)=NC(=O)Nc2c3c(cc4c2C(=O)CC4)CCC3)s1` (single isomer, unassigned) [Example 364, (R) or (S)-2-(2-Hydroxypropan-2-yl)-N′-((3-oxo-1,2,3,5,6,7-hexahydro-s-indacen-4-yl)carbamoyl)thiazole-5-sulfonimidamide], 6.70 to 7.40; with `CC(c1ccc(S(N)(=O)=NC(=O)Nc2c3c(cc4c2CCC4)CCC3)cc1)N(C)C` (single isomer, unassigned) [Example 371, (S) or (R)-4-(1-(dimethylamino)ethyl)-N′-((1,2,3,5,6,7-hexahydro-s-indacen-4-yl)carbamoyl)benzenesulfonimidamide], 4.52 to 5.30.
In the case of `CC(c1ccc(S(N)(=O)=NC(=O)Nc2c3c(cc4c2CCC4)CCC3)cc1)N(C)C` (single isomer, unassigned) [Example 372, (R) or (S)-4-(1-(dimethylamino)ethyl)-N′-((1,2,3,5,6,7-hexahydro-s-indacen-4-yl)carbamoyl)benzenesulfonimidamide], the pIC50 is 6.70 to 7.40.
With `CNS(=O)(=NC(=O)Nc1c2c(cc3c1CCC3)CCC2)c1cnc(C(C)(C)O)s1` (single isomer, unassigned) [Example 373, (R) or (S)-N′-((1,2,3,5,6,7-hexahydro-s-indacen-4-yl)carbamoyl)-2-(2-hydroxypropan-2-yl)-N-methylthiazole-5-sulfonimidamide] the figure was 4.52 to 5.30; with `CNS(=O)(=NC(=O)Nc1c2c(cc3c1CCC3)CCC2)c1cnc(C(C)(C)O)s1` (single isomer, unassigned) [Example 374, (S) or (R)-N′-((1,2,3,5,6,7-hexahydro-s-indacen-4-yl)carbamoyl)-2-(2-hydroxypropan-2-yl)-N-methylthiazole-5-sulfonimidamide], 7.40 to 8.10.
To `CC(c1ccc(S(N)(=O)=NC(=O)Nc2c3c(cc4c2CCC4)CCC3)cc1)N(C)C` (single isomer, unassigned) [Example 375, (S,R) or (S,S) or (R,S) or (R,R)-4-(1-(dimethylamino)ethyl)-N′-((1,2,3,5,6,7-hexahydro-s-indacen-4-yl)carbamoyl)benzenesulfonimidamide] belongs 4.52 to 5.30.
To `CC(c1ccc(S(N)(=O)=NC(=O)Nc2c3c(cc4c2CCC4)CCC3)cc1)N(C)C` (single isomer, unassigned) [Example 376, (S,S) or (S,R) or (R,R) or (R,S)-4-(1-(dimethylamino)ethyl)-N′-((1,2,3,5,6,7-hexahydro-s-indacen-4-yl)carbamoyl)benzenesulfonimidamide] belongs 4.52 to 5.30.
Turning to `CC(c1ccc(S(N)(=O)=NC(=O)Nc2c3c(cc4c2CCC4)CCC3)cc1)N(C)C` (single isomer, unassigned) [Example 377, (R,R) or (R,S) or (S,S) or (S,R)-4-(1-(dimethylamino)ethyl)-N′-((1,2,3,5,6,7-hexahydro-s-indacen-4-yl)carbamoyl)benzenesulfonimidamide], the pIC50 is 6.70 to 7.40.
Consider `CC(c1ccc(S(N)(=O)=NC(=O)Nc2c3c(cc4c2CCC4)CCC3)cc1)N(C)C` (single isomer, unassigned) [Example 378, (R,S) or (R,R) or (S,R) or (S,S)-4-(1-(dimethylamino)ethyl)-N′-((1,2,3,5,6,7-hexahydro-s-indacen-4-yl)carbamoyl)benzenesulfonimidamide], for which the pIC50 is 6.00 to 6.70.
